Consider five compounds from patent US4322348A, “Maytansinoids” (Takeda Chemical Industries, Ltd., priority 1979, dated 1982).

Series [1] in a line: solubility. The series is classed as physicochemical.
The test system of series [2] is Hamigera avellanea IFO 7721. Nature of the series: growth inhibition, paper disc method, agar plate. Format: cell-based. The note with it: IFO7721, 8 mm disc, 0.02 ml of a 100 μg/ml solution, pH 7.0, read-out: inhibitory zones. The procedure: Also, the compounds are assayed by the paper disc method using an agar plate [3.5 g of disodiumhydrogen phosphate, 0.5 g of potassium dihydrogen phosphate, 5 g of yeast extract (manufactured by Difco Co.), 10 g of glucose, 15 g of agar, 1000 ml of distilled water, pH 7.0] as a medium for assay and Hamigera avellanea IFO 7721 as a test organism. Thus, the growth inhibitory activity is determined on the plate medium containing the test organism using a paper disc (Toyo Seisakusho Co. Japan, thin type, 8 mm in diameter) impregnated with 0.02 ml of a 100 μg/ml solution of C-15003PND-1, PND-2, PND-3 or PND-4. As a result, C-15003PND-1, PND-2, PND-3 and PND-4 show inhibitory zones of 28 mm, 30 mm, 34 mm and 36 mm, respectively.

Series [3] is described as follows: acute toxicity test in mice. Format: in vivo. The settings on record: intraperitoneal.
The subject of series [4] is Pseudomonas aeruginosa. In words: growth inhibition, paper disc method, trypticase soy agar. The series is classed as cell-based. The note with it: 8 mm disc, 0.02 ml of a 300 μg/ml solution. The procedure: (§1) The growth inhibitory activity of the compounds against the test organisms is assayed by the paper disc method using a trypticase soy agar (manufactured by Baltimore Biologicals Laboratories, U.S.A.) as the assay medium. That is, the growth inhibitory activity is determined on the plate medium containing the following test organisms using a paper disc (manufactured by Toyo Seisakusho Co. Ltd., thin type, 8 mm in diameter) impregnated with 0.02 ml of a 300 μg/ml solution of C-15003PND-1, PND-2, PND-3 or PND-4.

For series [5], the system named is Proteus mirabilis. Described as above. The series is classed as cell-based. The settings on record: 8 mm disc, 0.02 ml of a 300 μg/ml solution. The procedure: as §1
The test system of series [6] is Mycobacterium avium. The series is described as above. Format: cell-based. The settings on record: 8 mm disc, 0.02 ml of a 300 μg/ml solution. How it is done:
as §1

The test system of series [7] is Bacillus cereus. Described as above. The series is classed as cell-based. The settings on record: 8 mm disc, 0.02 ml of a 300 μg/ml solution. The procedure: as §1
Series [8] concerns Serratia marcescens. The description is as above. Format: cell-based. The note with it: 8 mm disc, 0.02 ml of a 300 μg/ml solution. How it is done: as §1
Series [9] deals with Klebsiella pneumoniae. The series is described as above. Format: cell-based. The note with it: 8 mm disc, 0.02 ml of a 300 μg/ml solution. The procedure:
as §1

Series [10] has as its system Bacillus subtillis. The description is as above. The settings on record: 8 mm disc, 0.02 ml of a 300 μg/ml solution. Format: cell-based. The procedure: as §1
The test system of series [11] is Staphylococcus aureus. The description is as above. The series is classed as cell-based. The note with it: 8 mm disc, 0.02 ml of a 300 μg/ml solution. The procedure: as §1
Series [12] has as its system Escherichia coli. The series is described as above. The series is classed as cell-based. The note with it: 8 mm disc, 0.02 ml of a 300 μg/ml solution. How it is done: as §1
In series [13] the test system is Proteus vulgaris. The description is as above. The series is classed as cell-based. The note with it: 8 mm disc, 0.02 ml of a 300 μg/ml solution. How it is done:
as §1

Series [14] concerns Tetrahymena pyriformis W. In words: growth inhibition, liquid dilution method. The series is classed as cell-based. The settings on record: 28° C., 44 to 48 hours, pH 7.0, read-out: concentration at which the growth of the test organism is inhibited. How it is done: Further, the growth inhibitory activity of these antibiotics is determined by the liquid dilution method using a medium [20 g of proteose peptone (Difco Co.), 1 g of yeast extract, 2 g of glucose, 1000 ml of distilled water, 10 ml of 1 M phosphate buffer pH 7.0] and Tetrahymena pyriformis W as a test organism with incubation at 28° C. for 44 to 48 hours. As a result, the growth of the above test organism is found to be inhibited at a concentration of 8 μg/ml of C-15003PND-1, 4 μg/ml of C-15003PND-2, 2 μg/ml of C-15003PND-3 and 1 μg/ml of C-15003PND-4.

In series [15] the test system is tumor cells leukemia P388. Nature of the series: antitumor activity, therapeutic effect on leukemia P388 in mice. The settings on record: 1×10^6 cells/mouse i.p.; compound i.p. for 9 consecutive days. The series is classed as in vivo. The procedure: The therapeutic effects of C-15003PND-1, PND-2, PND-3 and PND-4 on tumor cells leukemia P388 (1×10^6 cells/mouse, transplanted intraperitoneally) are determined by administering the compound intraperitoneally for 9 consecutive days.

The mark [16] stands for this setting: in petroleum ether, n-hexane, water.
Where [17] appears, read: in chloroform, ethyl acetate, acetone, ethanol, methanol, pyridine, tetrahydrofuran, dimethyl sulfoxide.

Values after ≈ are worked out from the molar mass of the structure shown.

On to `COc1cc2cc(c1Cl)NC(=O)CC(O)C1(C)OC1C(C)C1CC(O)(NC(=O)O1)C(OC)C=CC=C(C)C2` (stereo not shown) [C-15003PND-0], for which the Solubility result is listed as “Soluble” in [1] (in chloroform, ethyl acetate, acetone, ethanol, pyridine, tetrahydrofuran, dimethyl sulfoxide) and “Insoluble” in [1] (setting [16]).

Regarding `COc1cc2cc(c1Cl)NC(=O)CC(OC(=O)C(C)C)C1(C)OC1C(C)C1CC(O)(NC(=O)O1)C(OC)C=CC=C(C)C2` (stereo not shown) [C-15003PND-3], the zone of inhibition at 100 µg/mL in series [2] was 34 mm. Further, the “estimated LD0” value in series [3] is given as 0.313 mg/kg. The “estimated LD100” value in [3] was 2.5 mg/kg. In addition, the growth inhibitory activity entry in series [4], in series [5], in [6], in series [7], in series [8] and in [9] was “do not show any activity” throughout. In addition, the growth inhibitory activity result in series [10], in [11], in series [12] and in [13] was “do not show any activity” in each case. The Solubility entry in series [1] (setting [17]) is “Soluble”; in [1] (setting [16]), “Insoluble”. Also, the MIC in [14] stood at 2 µg/mL (≈ 3.22 µM). For the same compound, in series [15], the life-prolonging effect entry is reported as “a life-prolonging effect”.

On to `COc1cc2cc(c1Cl)NC(=O)CC(OC(=O)CC(C)C)C1(C)OC1C(C)C1CC(O)(NC(=O)O1)C(OC)C=CC=C(C)C2` (stereo not shown) [C-15003PND-4], for which the zone of inhibition at 100 µg/mL in [2] is 36 mm. Further, the “estimated LD0” value in series [3] was 0.313 mg/kg. In series [3], the “estimated LD100” value was 2.5 mg/kg. In addition, the growth inhibitory activity result in series [4], in series [5], in series [6], in series [7], in series [8] and in series [9] was “do not show any activity” each time. Also, the growth inhibitory activity result in series [10], in series [11], in [12] and in [13] was “do not show any activity” each time. Moreover, the Solubility result in [1] (setting [17]) is “Soluble”; in series [1] (setting [16]), “Insoluble”. The MIC in series [14] came to 1 µg/mL (≈ 1.57 µM). Moreover, the life-prolonging effect entry in series [15] is “a life-prolonging effect”.

In the case of `COc1cc2cc(c1Cl)NC(=O)CC(OC(C)=O)C1(C)OC1C(C)C1CC(O)(NC(=O)O1)C(OC)C=CC=C(C)C2` (stereo not shown) [C-15003PND-1], the zone of inhibition at 100 µg/mL in series [2] is 28 mm. For the same compound, the “estimated LD0” value in series [3] is on record as 0.313 mg/kg. In series [3], the “estimated LD100” value is given as 2.5 mg/kg. In addition, the growth inhibitory activity entry in series [4], in series [5], in series [6], in series [7], in series [8] and in series [9] was “do not show any activity” in each case. Further, the growth inhibitory activity result in series [10], in series [11], in [12] and in series [13] was “do not show any activity” in each case. Further, the Solubility entry is “Soluble” in series [1] (setting [17]) and “Insoluble” in series [1] (setting [16]). Further, the MIC in series [14] was determined as 8 µg/mL (≈ 13.5 µM). Further, the life-prolonging effect result in [15] is recorded as “a life-prolonging effect”.

Regarding `CCC(=O)OC1CC(=O)Nc2cc(cc(OC)c2Cl)CC(C)=CC=CC(OC)C2(O)CC(OC(=O)N2)C(C)C2OC12C` (stereo not shown) [C-15003PND-2], the zone of inhibition at 100 µg/mL in series [2] amounted to 30 mm. Also, in series [3], the “estimated LD0” value is 0.313 mg/kg. Besides, in series [3], the “estimated LD100” value is 2.5 mg/kg. Moreover, the growth inhibitory activity result in series [4], in series [5], in series [6], in [7], in series [8] and in [9] was “do not show any activity” each time. For the same compound, the growth inhibitory activity entry in [10], in series [11], in series [12] and in [13] was “do not show any activity” in each case. The Solubility result in series [1] (setting [17]) is “Soluble”; in [1] (setting [16]), “Insoluble”. In addition, the MIC in [14] is 4 µg/mL (≈ 6.59 µM). The life-prolonging effect entry in series [15] is listed as “a life-prolonging effect”.
